Laboratory results reported in ChEMBL document CHEMBL5335848, “Penicilloneines A and B, Quinolone-Citrinin Hybrids from a Starfish-Derived Penicillium sp” (2024).
≈ marks a conversion by molar mass, not a printed value. Calls of active or inactive are those of the source. The rule behind the calls is not given here.

How the values were obtained:
[1] = test system: Colletotrichum gloeosporioides; test: Antifungal activity against Colletotrichum gloeosporioides assessed as inhibition of mycelial growth incubated for 3 days by cross-bonded method; assay type: functional; conditions: for Activity: time 3.0 day; for LC50: 72 h, time 3 day
[2] = test system: Colletotrichum gloeosporioides; test: Antifungal activity against Colletotrichum gloeosporioides assessed as disruption of cell wall at 5 mg/L incubated for 24 hrs by TEM analysis; assay type: functional, organism-based
[3] = test system: Colletotrichum gloeosporioides; test: Antifungal activity against Colletotrichum gloeosporioides assessed as induction of morphological changes by measuring appearance of vacuolizations at 5 mg/L incubated for 24 hrs by TEM analysis; assay type: functional, organism-based
[4] = test system: Colletotrichum gloeosporioides; test: Antifungal activity against Colletotrichum gloeosporioides assessed as increase in beta-galactosidase encoding gene expression by RNA-seq analysis; assay type: functional, organism-based
[5] = test system: Colletotrichum gloeosporioides; test: Antifungal activity against Colletotrichum gloeosporioides assessed as fold increase in leucine aminopeptidase encoding gene expression by qRT-PCR analysis relative to control; assay type: functional
[6] = test system: Colletotrichum gloeosporioides; test: Antifungal activity against Colletotrichum gloeosporioides assessed as induction of morphological changes by measuring increase in low density particles in cytoplasm at 5 mg/L incubated for 24 hrs by TEM analysis; assay type: functional, organism-based
[7] = test system: Colletotrichum gloeosporioides; test: Antifungal activity against Colletotrichum gloeosporioides assessed as fold decrease in phosphoketolase encoding gene expression by qRT-PCR analysis relative to control; assay type: functional
[8] = test system: Colletotrichum gloeosporioides; test: Antifungal activity against Colletotrichum gloeosporioides assessed as induction of morphological changes by measuring appearance of evident craters on surface at 5 mg/L measured after 48 hrs by SEM analysis; assay type: functional, organism-based
[9] = test system: Colletotrichum gloeosporioides; test: Antifungal activity against Colletotrichum gloeosporioides assessed as induction of morphological changes by measuring appearance of twisted hyphae at 5 mg/L measured after 48 hrs by SEM analysis; assay type: functional, organism-based
[10] = test system: Colletotrichum gloeosporioides; test: Antifungal activity against Colletotrichum gloeosporioides assessed as increase in putative hydrolase encoding gene expression by RNA-seq analysis; assay type: functional, organism-based
[11] = test system: Colletotrichum gloeosporioides; test: Antifungal activity against Colletotrichum gloeosporioides assessed as fold decrease in oxalate decarboxylase encoding gene expression by qRT-PCR analysis relative to control; assay type: functional
[12] = test system: Colletotrichum gloeosporioides; test: Antifungal activity against Colletotrichum gloeosporioides assessed as induction of morphological changes by measuring degradation of plasma membrane at 5 mg/L incubated for 24 hrs by TEM analysis; assay type: functional, organism-based
[13] = test system: Colletotrichum gloeosporioides; test: Antifungal activity against Colletotrichum gloeosporioides assessed as fold increase in acetylcholinesterase encoding gene expression by qRT-PCR analysis relative to control; assay type: functional
[14] = test system: Colletotrichum gloeosporioides; test: Antifungal activity against Colletotrichum gloeosporioides assessed as decrease in oxalate decarboxylase encoding gene expression by RNA-seq analysis; assay type: functional, organism-based
[15] = test system: Colletotrichum gloeosporioides; test: Antifungal activity against Colletotrichum gloeosporioides assessed as induction of morphological changes by measuring appearance of cavities at 5 mg/L incubated for 24 hrs by TEM analysis; assay type: functional, organism-based
[16] = test system: Colletotrichum gloeosporioides; test: Antifungal activity against Colletotrichum gloeosporioides assessed as decrease in 3-carboxymuconate cyclase encoding gene expression by RNA-seq analysis; assay type: functional, organism-based
[17] = test system: Colletotrichum gloeosporioides; test: Antifungal activity against Colletotrichum gloeosporioides assessed as increase in acetylcholinesterase encoding gene expression by RNA-seq analysis; assay type: functional, organism-based
[18] = test system: Colletotrichum gloeosporioides; test: Antifungal activity against Colletotrichum gloeosporioides assessed as induction of morphological changes by measuring reduction in high density particles in cytoplasm at 5 mg/L incubated for 24 hrs by TEM analysis; assay type: functional, organism-based
[19] = test system: Colletotrichum gloeosporioides; test: Antifungal activity against Colletotrichum gloeosporioides assessed as induction of morphological changes by measuring separation of plasma membrane from cell wall at 5 mg/L incubated for 24 hrs by TEM analysis; assay type: functional, organism-based
[20] = test system: Colletotrichum gloeosporioides; test: Antifungal activity against Colletotrichum gloeosporioides assessed as increase in leucine aminopeptidase encoding gene expression by RNA-seq analysis; assay type: functional, organism-based
[21] = test system: Colletotrichum gloeosporioides; test: Antifungal activity against Colletotrichum gloeosporioides assessed as fold increase in lipase encoding gene expression by qRT-PCR analysis relative to control; assay type: functional
[22] = test system: Colletotrichum gloeosporioides; test: Antifungal activity against Colletotrichum gloeosporioides assessed as induction of morphological changes by measuring appearance of distorted hyphae at 5 mg/L measured after 48 hrs by SEM analysis; assay type: functional, organism-based
[23] = test system: Colletotrichum gloeosporioides; test: Antifungal activity against Colletotrichum gloeosporioides assessed as decrease in pyruvate decarboxylase encoding gene expression by RNA-seq analysis; assay type: functional, organism-based
[24] = test system: Colletotrichum gloeosporioides; test: Antifungal activity against Colletotrichum gloeosporioides assessed as fold decrease in pyruvate decarboxylase encoding gene expression by qRT-PCR analysis relative to control; assay type: functional
[25] = test system: Colletotrichum gloeosporioides; test: Antifungal activity against Colletotrichum gloeosporioides assessed as induction of morphological changes by measuring aggregation of particles into clusters in cytoplasm at 5 mg/L incubated for 24 hrs by TEM analysis; assay type: functional, organism-based
[26] = test system: Colletotrichum gloeosporioides; test: Antifungal activity against Colletotrichum gloeosporioides assessed as increase in lipase encoding gene expression by RNA-seq analysis; assay type: functional, organism-based
[27] = test system: Colletotrichum gloeosporioides; test: Antifungal activity against Colletotrichum gloeosporioides assessed as decrease in phosphoketolase encoding gene expression by RNA-seq analysis; assay type: functional, organism-based
[28] = test system: Colletotrichum gloeosporioides; test: Antifungal activity against Colletotrichum gloeosporioides assessed as induction of morphological changes by measuring appearance of clustered/bundled hyphae at 5 mg/L measured after 48 hrs by SEM analysis; assay type: functional, organism-based
[29] = test system: Colletotrichum gloeosporioides; test: Antifungal activity against Colletotrichum gloeosporioides assessed as fold increase in beta-galactosidase encoding gene expression by qRT-PCR analysis relative to control; assay type: functional
[30] = test system: Colletotrichum gloeosporioides; test: Antifungal activity against Colletotrichum gloeosporioides assessed as fold increase in glycosyl hydrolase encoding gene expression by qRT-PCR analysis relative to control; assay type: functional
[31] = test system: Colletotrichum gloeosporioides; test: Antifungal activity against Colletotrichum gloeosporioides assessed as induction of morphological changes by measuring appearance of disorganized organelles at 5 mg/L incubated for 24 hrs by TEM analysis; assay type: functional, organism-based
[32] = test system: Colletotrichum gloeosporioides; test: Antifungal activity against Colletotrichum gloeosporioides assessed as increase in glycosyl hydrolase encoding gene expression by RNA-seq analysis; assay type: functional, organism-based
[33] = test system: Colletotrichum gloeosporioides; test: Antifungal activity against Colletotrichum gloeosporioides assessed as fold increase in putative hydrolase encoding gene expression by qRT-PCR analysis relative to control; assay type: functional
[34] = test system: Colletotrichum gloeosporioides; test: Antifungal activity against Colletotrichum gloeosporioides assessed as induction of morphological changes by measuring disappearance of organelles at 5 mg/L incubated for 24 hrs by TEM analysis; assay type: functional, organism-based
[35] = test system: Colletotrichum gloeosporioides; test: Antifungal activity against Colletotrichum gloeosporioides assessed as fold decrease in 3-carboxymuconate cyclase encoding gene expression by qRT-PCR analysis relative to control; assay type: functional

Compound: CC1=C2C(=CO[C@H](C)[C@H]2C)C(O)=C(C(=O)O)C1=O
- Activity [1]: Active

Compound: Mancozeb
- Activity [2]: Active
- Activity [1]: Active
- Activity [3]: Active

Compound: Cc1c(O)c(Cc2c(O)c3ccccc3n(C)c2=O)c(O)c2c1[C@H](C)[C@@H](C)OC2=O
- LC50 [1]: 1.51 µg/mL (≈ 3.69 µM)

Compound: Cn1c(=O)cc(O)c2ccccc21
- Activity [1]: Active

Compound: Cc1c(O)c(C(=O)O)c(O)c2c1[C@H](C)[C@@H](C)OC2=O
- Activity [1]: Active

Compound: CC1=C2C(=CO[C@H](C)[C@H]2C)C(O)=C(Cc2c(O)c3ccccc3n(C)c2=O)C1=O
- Activity [4]: Active
- fold change (FC) [5]: 3.5
- Activity [6]: Active
- fold change (FC) [7]: 1.47
- Activity [8]: Active
- Activity [9]: Active
- Activity [10]: Active
- fold change (FC) [11]: 23.8
- Activity [12]: Active
- fold change (FC) [13]: 6
- Activity [14]: Active
- Activity [15]: Active
- Activity [16]: Active
- Activity [17]: Active
- Activity [18]: Active
- Activity [19]: Active
- Activity [20]: Active
- fold change (FC) [21]: 8.9
- LC50 [1]: 0.02 µg/mL (≈ 0.0508 µM)
- Activity [22]: Active
- Activity [23]: Active
- fold change (FC) [24]: 215
- Activity [25]: Active
- Activity [26]: Active
- Activity [27]: Active
- Activity [3]: Active
- Activity [28]: Active
- fold change (FC) [29]: 4.7
- fold change (FC) [30]: 1.7
- Activity [31]: Active
- Activity [32]: Active
- fold change (FC) [33]: 14
- Activity [34]: Active
- fold change (FC) [35]: 386
